Test results published in paper PMC2778643, “Differential role of the menthol-binding residue Y745 in the antagonism of thermally gated TRPM8 channels” (Molecular Pain, 2009).
Read-outs that look alike come from different tables or passages of the source. One block for each molecule: values may come before it.

Assays:
[1] = target: T1, TRPM8-Y745H mutant channel (Mus musculus, UniProt Q8R4D5, Y745H); experiment: Calcium imaging (Fura-2) of HEK293 cells expressing TRPM8-Y745H; format: cell-based
T1 construct: The full length cDNA encoding mouse TRPM8 (NM_134252) in pcDNA5; expressed in transfected cells; host or cells: HEK293
Procedure: (§1) The full length cDNA encoding mouse TRPM8 (NM_134252) in pcDNA5 (Invitrogen) was kindly provided by Dr. Ardem Patapoutian, (Scripps Research Institute, La Jolla, CA). The TRPM8-Y745H mutant was obtained by site-directed mutagenesis with the following primers: (for) 5'-[…]-3'; (rev) 5'-[…]-3', and Pfu Turbo Taq DNA Polymerase (Roche).
(§2) HEK293 cells were cultured in DMEM containing 10% of foetal bovine serum and antibiotics, and plated in 2 cm^2 wells at 400.000-500.000 cells/well. 20-24 h after plating, the cells were co-transfected with eGFP (0.3 μg/well) and TRPM8-wt or TRPM8-Y745H (2 μg/well) by incubating them with a solution containing the plasmid DNA and Lipofectamine 2000 (Invitrogen) for 5 hours. Subsequently, the cells were trypsinized and replated on poly-L-lysine-coated round coverslips (6 mm diameter). 20-48 h post-transfection, GFP(+) cells were selected for calcium imaging or electrophysiology experiments.
(§3) Prior to experiment, HEK293 cells transfected with the TRPM8-wt/Y745H constructs were incubated with 5 μM Fura-2AM dissolved in the bath solution and 0.02% Pluronic (both from Invitrogen) for 40 min at 37°C in darkness. Fluorescence measurements were made with a Leica DM IRE2 inverted microscope fitted with a CCD camera (Imago QE Sensicam, TillPhotonics, Graefelfing, Germany). Fura-2 was excited at 340 nm and 380 nm with a Polychrome IV monochromator (Till Photonics) and the emitted fluorescence was filtered with a 510 nm longpass filter.
(§4) Coverslip pieces with cultured cells were placed in a microchamber and continuously perfused with solutions warmed at 33°C. The temperature was adjusted with a water-cooled Peltier device placed at the inlet of the chamber, and controlled by a feedback device. Cold-sensitivity was investigated with a temperature decrease to 18-20°C (Figure 1B).

[2] = target: T2, TRPM8-wt channel (Mus musculus, UniProt Q8R4D5); experiment: Whole-cell patch clamp of HEK293 cells expressing TRPM8-wt; format: cell-based; conditions: for Inhibition of voltage-activated TRPM8-wt current: 33°C, +120 mV
T2 construct: The full length cDNA encoding mouse TRPM8 (NM_134252) in pcDNA5; expressed in transfected cells; host or cells: HEK293
Procedure: as §1, §2
(§5) Whole-cell voltage-clamp recordings of TRPM8-wt/Y745H transfected HEK293 cells were performed simultaneously with temperature recordings. Current development was monitored at a holding potential of -60 mV. For information on voltage-dependent effects, 1.25-s-duration voltage ramps from -100 to +150 mV were delivered at desired time points. Standard patch-pipettes (3-5 MΩ) were made of borosilicate glass capillaries (Harvard Apparatus Ltd, UK), and contained (in mM): 150 NaCl, 3 MgCl2, 5 EGTA, 10 HEPES, (278 mOsm/kg; pH 7.2, adjusted with NaOH). During electrophysiological recordings, a divalent cation -free bath solution was used to minimize desensitization, which contained: 150 NaCl, 10 EDTA, 10 HEPES and 10 glucose (pH 7.4 with NaOH). The divalent-free solution was used in the preparation of all chemical modulator containing solutions. Current signals were recorded with an Axopatch 200B patch-clamp amplifier (Molecular Devices, Sunnyvale, CA, U.S.A.) applying series resistance compensation (60-90%). Stimulus delivery and data acquisition were performed using pClamp 9 software (Molecular Devices). Data were sampled at 5 kHz (ramps) and 1 kHz (timecourse) and filtered online at 2 kHz.
as §4
Experiments were always performed in parallel with cells expressing TRPM8-wt and TRPM8-Y745H to minimize any day-to-day variability in experimental conditions. […]

[3] = target: T1, TRPM8-Y745H mutant channel; experiment: Whole-cell patch clamp of HEK293 cells expressing TRPM8-Y745H; format: cell-based; conditions: for Inhibition of voltage-activated TRPM8-Y745H current: +120 mV
Procedure: as §1, §2, §5, §4
Experiments were always performed in parallel with cells expressing TRPM8-wt and TRPM8-Y745H to minimize any day-to-day variability in experimental conditions. To estimate the shifts in the voltage-dependence of activation of TRPM8-wt/Y745H in HEK293 cells, current-voltage (I-V) relationships from voltage ramps were fitted with an equation that combines a linear conductance multiplied by a Boltzmann activation term: [drawing 1]

[4] = system: TRPM8-wt channel; conditions: calcium imaging (CI), cited from earlier work
[5] = system: TRPM8-wt channel; conditions: electrophysiology (EP), +80 mV, cited from earlier work
[6] = target: T2, TRPM8-wt channel; experiment: Calcium imaging (Fura-2) of HEK293 cells expressing TRPM8-wt; format: cell-based
Procedure: as §1, §2, §3, §4

[7] = target: T2, TRPM8-wt channel; parameters: method as in PMID 14757700; conditions: 100 μM menthol-activated TRPM8-wt, FLIPR; cited from earlier work
[8] = Solubility in the extracellular solution; format: physicochemical; conditions: reproducible data above 20 μM complicated
[9] = 3 μM antagonist, compared with TRPM8-wt
[10] = 100 μM menthol-activated TRPM8-wt, modified from ref 25, read-out: IC50 menthol
[11] = cold-activated TRPM8-wt, read-out: IC50 cold
[12] = cold-activated TRPM8-wt, read-out: IC50 cold (converted)
[13] = 100 μM, at 33°C or during cooling

T2 sequence (Q8R4D5 whole entry): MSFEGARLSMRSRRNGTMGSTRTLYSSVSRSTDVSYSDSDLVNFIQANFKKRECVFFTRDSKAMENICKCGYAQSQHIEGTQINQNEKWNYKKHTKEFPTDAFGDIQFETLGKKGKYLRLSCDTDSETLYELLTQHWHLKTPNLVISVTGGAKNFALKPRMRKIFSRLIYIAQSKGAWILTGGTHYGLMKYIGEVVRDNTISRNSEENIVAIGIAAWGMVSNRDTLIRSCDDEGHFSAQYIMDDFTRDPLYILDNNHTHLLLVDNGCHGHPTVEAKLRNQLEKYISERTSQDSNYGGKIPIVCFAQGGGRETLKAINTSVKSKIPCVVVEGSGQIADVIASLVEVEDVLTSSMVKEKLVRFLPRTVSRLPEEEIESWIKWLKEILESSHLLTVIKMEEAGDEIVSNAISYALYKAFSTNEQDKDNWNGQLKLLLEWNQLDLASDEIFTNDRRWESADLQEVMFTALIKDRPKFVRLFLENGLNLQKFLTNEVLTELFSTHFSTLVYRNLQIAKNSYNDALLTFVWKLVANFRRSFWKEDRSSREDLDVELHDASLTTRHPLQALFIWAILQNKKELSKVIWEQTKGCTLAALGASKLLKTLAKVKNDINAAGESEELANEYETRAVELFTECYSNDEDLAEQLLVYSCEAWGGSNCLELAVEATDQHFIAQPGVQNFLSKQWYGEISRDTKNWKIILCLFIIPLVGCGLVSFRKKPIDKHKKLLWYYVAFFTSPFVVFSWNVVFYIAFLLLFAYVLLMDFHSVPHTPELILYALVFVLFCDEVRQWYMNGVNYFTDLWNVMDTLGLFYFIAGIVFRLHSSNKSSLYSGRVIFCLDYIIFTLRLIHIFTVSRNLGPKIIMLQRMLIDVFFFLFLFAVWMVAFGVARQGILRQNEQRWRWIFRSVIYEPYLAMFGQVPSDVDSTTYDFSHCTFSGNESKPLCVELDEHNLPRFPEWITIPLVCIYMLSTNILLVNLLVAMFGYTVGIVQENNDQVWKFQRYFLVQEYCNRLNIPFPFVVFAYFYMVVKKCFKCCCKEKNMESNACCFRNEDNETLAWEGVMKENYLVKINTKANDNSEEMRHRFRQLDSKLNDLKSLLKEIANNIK
T1 sequence (Q8R4D5 whole entry Y745H): as the sequence (Q8R4D5 whole entry) above, with Y745H counted along it

SMILES: c1c[nH]cn1 [Imidazole, 1,3-diazacyclopenta-2,4-diene]
Inhibition of cooling-activated TRPM8 wild-type ([6]; 20 μM, 100 μM and 1 mM): ineffective | Inhibition of cooling-activated TRPM8-Y745H ([1]; 20 μM, 100 μM and 1 mM): ineffective

SMILES: CC1CCC(C(C)C)C(O)C1 [menthol, L-menthol]
Agonist effect on intracellular calcium, TRPM8-wt [6, 13]: increase the intracellular calcium levels | Agonist effect on intracellular calcium, TRPM8-Y745H [1, 13]: lack of menthol responses | Agonist effect on whole-cell current, TRPM8-Y745H ([3]; 100 μM, 33°C, all potentials): completely insensitive to menthol

SMILES: Oc1cc2c(cc1O)CN(C(=S)NCCc1ccc(Cl)cc1)CCC2 [Capsazepine, N-[2-(4-Chlorophenyl)ethyl]-1,3,4,5-tetrahydro-7,8-dihydroxy-2H-2-benzazepine-2-carbothioamide]
IC50 ([6]; cold-activated TRPM8-wt, calcium imaging (CI), this work): 12000 ± 2000 nM | Inhibitory potency at cooling-activated TRPM8-Y745H compared with wild-type (dose-inhibition curves) ([1]; calcium imaging, cooling-activated): lost part of their inhibitory potential | IC50 [7]: 18000 ± 1000 nM

Further lines, with some results ahead:

Inhibition of voltage-activated TRPM8-wt current ([2]; 3 μM): strong inhibition | Block of cooling-activated TRPM8-Y745H current ([3]; 3 μM, +80 mV): 98% | Inhibition of voltage-activated TRPM8-Y745H current ([3]; 33°C, 3 μM): without affecting the block
SMILES: CC(C)(C)c1ccc(NC(=O)N2CCN(c3ncccc3Cl)CC2)cc1 [BCTC, 4-[3-chloro-pyridin-2-yl]-piperazine-1-carboxylic acid [4-tert-butyl-phenyl]-amide]
Block of cold-evoked [Ca2+]i response of TRPM8-Y745H [1, 9]: maintained its full and reversible blocking potential | IC50 [4, 10]: 470 ± 10 nM | IC50 [4, 11]: 680 ± 60 nM | IC50 ([5]; 100 μM menthol-activated TRPM8-wt, modified from ref 25, read-out: IC50 menthol (converted)): 340 nM | IC50 [5, 12]: 540 nM

Block of cold-evoked [Ca2+]i response of TRPM8-Y745H [1, 9]: nearly complete loss of effect | Block of cold-evoked [Ca2+]i response of TRPM8-Y745H ([1]; 20 μM (super saturating concentration), compared with 3 μM): unable to increase block | Block of cold-evoked TRPM8-wt current ([2]; 3 μM): potent antagonism | Inhibition of voltage-activated TRPM8-wt current ([2]; 3 μM): strong inhibition | Apparent gating charge during antagonist application ([2]; TRPM8-wt, cooling, 3 μM SKF96365): 0.73 ± 0.04 | Block of cold-evoked TRPM8-Y745H current ([3]; 3 μM): completely failed to block | Block of cold-evoked TRPM8-Y745H current ([3]; 20 μM): lacked any inhibitory effects | Inhibition of voltage-activated TRPM8-Y745H current ([3]; 33°C, 3 μM): fully abrogated the inhibition | Apparent gating charge during antagonist application ([3]; TRPM8-Y745H, cooling, 3 μM SKF96365): 0.63 ± 0.04
SMILES: COc1ccc(CCCOC(Cn2ccnc2)c2ccc(OC)cc2)cc1 (centres unmarked) [SKF96365]
IC50 [4, 10]: 3000 ± 1000 nM | IC50 [4, 11]: 1000 ± 200 nM | IC50 [5, 12]: 800 nM

Solubility in the extracellular solution [8]: limited solubility
SMILES: Clc1ccccc1C(c1ccccc1)(c1ccccc1)n1ccnc1 [Clotrimazole, 1-[(2-chlorophenyl)diphenylmethyl]-1H-imidazole]
